Laboratory results as given in patent US8937072B2, “Substituted cyanoaniline compounds, preparation and use thereof” (Sinochem Corporation, priority 2011, dated 2015).

Legend:
rice blast = assay: microbe, parasite or virus in culture; assay type: cell-based; settings: for the inhibition rate against rice blast (%) 0.03 mg/L: Table 21, 0.03 mg/L; for the inhibition rate against rice blast (%) 0.1 mg/L: Table 21, 0.1 mg/L; for the inhibition rate against rice blast (%) 0.3 mg/L: Table 21, 0.3 mg/L; for inhibition rate against rice blast: in vitro
corn rust = assay: Protectant activity in vivo (whole plant) against corn rust
Method: (§1) The method is as followed: The whole plant is used in this test. The compound is dissolved in a proper solvent to get mother solution. The proper solvent is selected from acetone, methanol, DMF and so on according to their dissolving capability to the sample. The volume rate of solvent and testing solution (v/v) is equal to or less than 5%. The mother solution is diluted with water containing 0.1% tween-80 to get the testing solution whose concentration is designed. The testing solution is sprayed to the host plant by a special plant sprayer. The plant is inoculated with fungus after 24 hours. According to the infecting characteristic of fungus, the plant is stored in a humidity chamber and then transferred into greenhouse after infection is finished. And the other plants are placed in greenhouse directly. The activity of compound is obtained by eyeballing after 7 days in common.

cucumber downy mildew = assay: Protectant activity in vivo (whole plant) against cucumber downy mildew
Method: as §1

cucumber gray mold = assay: Activity in vitro (96-well, High Through Put): inhibition rate against cucumber gray mold; assay type: cell-based
Method: The method is as followed: High Through Put is used in the test. The compound is dissolved in a proper solvent to become a testing solution whose concentration is designed. The solvent is selected from acetone, methanol, DMF and so on according to their dissolving capability to the sample. In a no animalcule condition, the testing solution and pathogens suspension are added into the cells of 96 cells culture board, which then should be placed in the constant temperature box. 24 hours later, pathogen germination or growth can be investigated by eyeballing, and the activity in vitro of the compound is evaluated based on germination or growth of control treatment.

Row | SMILES | the inhibition rate against rice blast (%) 0.03 mg/L (rice blast) [%] | the inhibition rate against rice blast (%) 0.1 mg/L (rice blast) [%] | the inhibition rate against rice blast (%) 0.3 mg/L (rice blast) [%] | the protectant activity (%) against corn rust (corn rust; 6.25 mg/L) [%] | the protectant activity (%) against corn rust (corn rust; 25 mg/L) [%] | the protectant activity (%) against corn rust (corn rust; 100 mg/L) [%] | the protectant activity (%) against corn rust (corn rust; 400 mg/L) [%] | protectant activity against corn rust in vivo (corn rust; dose 400 mg/L) [%] | the protectant activity (%) against cucumber downy mildew (cucumber downy mildew; 25 mg/L) [%] | the protectant activity (%) against cucumber downy mildew (cucumber downy mildew; 50 mg/L) [%] | the protectant activity (%) against cucumber downy mildew (cucumber downy mildew; 100 mg/L) [%] | protectant activity against cucumber downy mildew in vivo (cucumber downy mildew; dose 50 mg/L) [%] | protectant activity against cucumber downy mildew in vivo (cucumber downy mildew; dose 100 mg/L) [%] | protectant activity against cucumber downy mildew in vivo (cucumber downy mildew; dose 400 mg/L) [%] | also measured
1 | N#Cc1c(Cl)c(Cl)c(Nc2c(Cl)cc([N+](=O)[O-])cc2Br)c(Cl)c1C#N [Compound A-46] | 100 | 100 | 100 | 75 | 85 | 95 | 100 | 100 | – | – | – | – | – | – | –
2 | N#Cc1c(Cl)c(Cl)c(Nc2ccc(C(F)(F)F)cc2Cl)c(C#N)c1Cl [Compound B-28] | 80 | 100 | 100 | – | – | – | – | – | 80 | 98 | 100 | 98 | 100 | 100 | the protectant activity (%) against cucumber downy mildew (cucumber downy mildew; 12.5 mg/L): 20%
3 | N#Cc1c(Cl)c(Cl)c(Nc2cc(C(F)(F)F)ccc2Cl)c(C#N)c1Cl [Compound B-29] | 0 | 50 | 100 | – | – | – | – | – | 100 | 100 | 100 | 100 | 100 | 100 | the protectant activity (%) against cucumber downy mildew (cucumber downy mildew; 12.5 mg/L): 30%; protectant activity against cucumber downy mildew in vivo (cucumber downy mildew; dose 25 mg/L): 100%; the inhibition rate against cucumber gray mold (%) (cucumber gray mold; 0.9 mg/L): 50%; the inhibition rate against cucumber gray mold (%) (cucumber gray mold; 2.8 mg/L): 80%; the inhibition rate against cucumber gray mold (%) (cucumber gray mold; 8.3 mg/L): 80%; inhibition rate against cucumber gray mold (cucumber gray mold; in vitro, dose 8.3 mg/L): 80%
4 | N#Cc1c(Cl)c(Cl)c(Nc2ccc(Cl)cc2[N+](=O)[O-])c(C#N)c1Cl [Compound B-39] | 0 | 80 | 100 | – | – | – | – | – | – | – | – | – | – | 100 | –
5 | N#Cc1cc(Cl)c(Nc2c(Cl)c(Cl)c(C#N)c(Cl)c2C#N)c(Cl)c1 [Compound B-51] | 0 | 50 | 100 | – | – | – | – | – | – | – | – | – | – | – | the inhibition rate against cucumber gray mold (%) (cucumber gray mold; 0.9 mg/L): 80%; the inhibition rate against cucumber gray mold (%) (cucumber gray mold; 2.8 mg/L): 80%; the inhibition rate against cucumber gray mold (%) (cucumber gray mold; 8.3 mg/L): 100%
6 | COC(=O)c1cc(Cl)c(Nc2c(Cl)c(Cl)c(C#N)c(Cl)c2C#N)c(Cl)c1 [Compound B-62] | 0 | 80 | 100 | 0 | 30 | 60 | 100 | 100 | – | – | – | – | – | – | –
7 | N#Cc1c(Cl)c(Cl)c(Nc2c(Cl)c(Cl)c(C#N)c(Cl)c2C#N)c(C#N)c1Cl [Compound B-69] | – | – | – | – | – | – | – | 100 | – | – | – | – | – | 100 | inhibition rate against rice blast (rice blast; dose 8.3 mg/L): 80%
8 | CN(C)c1c(Cl)c(Nc2c(Cl)cc([N+](=O)[O-])cc2Cl)c(C#N)c(Cl)c1C#N [Compound B-73] | 0 | 0 | 80 | 30 | 70 | 100 | 98 | 100 | 50 | 100 | 100 | 100 | 100 | 100 | inhibition rate against rice blast (rice blast; dose 0.3 mg/L): 80%; protectant activity against corn rust in vivo (corn rust; dose 100 mg/L): 100%
9 | N#Cc1c(F)c(F)c(Nc2ccc(C(F)(F)F)cc2Cl)c(C#N)c1F [Compound B-92] | – | – | – | – | – | – | – | 100 | – | – | – | 98 | 100 | 100 | inhibition rate against rice blast (rice blast; dose 0.3 mg/L): 80%; protectant activity against corn rust in vivo (corn rust; dose 100 mg/L): 100%
10 | N#Cc1c(Cl)c(Cl)c(Nc2nc(Cl)c(Cl)cc2Cl)c(C#N)c1Cl [Compound B-128] | 100 | 100 | 100 | – | – | – | – | – | – | – | – | 98 | 100 | 100 | –
